Laboratory results taken from US20240415845A1, “Compositions of Iboga Alkaloids and Methods of Treatment” (priority 2022, published 2024).

Test system: special operations veterans with combat and/or blast exposure
Test: Hamilton-Anxiety Rating Scale (HAM-A)
Type: in vivo, human
Source text: The pre-specified primary outcome was change in the World Health Organization Disability Assessment Schedule 2.0 (WHODAS) (Gold L. H. et al., J. Am. Acad. Psychiatry Law 42, 9 (2014)) from baseline to post-treatment, with change from baseline to the one-month follow-up a secondary outcome. Additional pre-specified secondary outcomes included post-treatment changes on the Clinician Administered PTSD Scale (CAPS-5; Weathers, F. W. et al., Psychol. Assess., 30, 383-395 (2018)), Montgomery-Åsberg Depression Rating Scale (MADRS; Montgomery, S. A., Br. J. Psychiatry J. Ment. Sci., 134, 382-389 (1979)) and the Hamilton-Anxiety Rating Scale (HAM-A; Bruss, G. S., et al., Psychiatry Res., 53, 191-202 (1994)). […] An additional dose of magnesium was administered approximately 12 hours later. To assess the significance of post-treatment changes, linear mixed effects (LME) models were used for each outcome measure. False Discovery Rate (FDR; Benjamini, Y. et al., J. R. Stat. Soc. Ser. B Methodol., 57, 289-300 (1995)) was applied to correct for multiple comparisons.
To further assess changes in comorbid psychiatric symptoms identified by the models, mean percent reduction, response rate, and remission rate according to the CAPS-5, MADRS and HAM-A (Table 1) were calculated. Response on the CAPS-5, MADRS, and HAM-A was defined as a reduction of at least 10 points (Mitchell, J. M. et al., Nat. Med. 27, 1025-1033(2021)), 50% (Leucht, S. et al., J. Affect. Disord. 210, 287-293 (2017)), and 50% (McIntyre, A. et al., Depress. Anxiety 24, 487-494 (2007)), respectively; remission as loss of diagnosis and a total score below 12 (Mitchell, J. M. et al. supra), <8 (Leucht, S. et al. supra), and <8(McIntyre, A. et al., supra), respectively. One participant's baseline scores met criteria for remission in all three scales and so were excluded from the calculation of response and remission rates, leaving 29 participants in these specific analyses.
With subjects in the fasting state, an intravenous infusion of 1 gram of magnesium sulfate was administered 1-2 hours prior to treatment. […] Medical staff (MD, RN, or EMT) were onsite at a ratio of at least 1 staff per 2 patients throughout treatment for monitoring and management, but no specific coaching or psychological support was provided during treatment.
Clinician administered scales included CAPS-5 (Clinician-administered PTSD Scale for DSM-5), which is a gold standard assessment of PTSD symptom severity; MADRS (Montgomery-Asberg Depression Rating Scale), a measure for depressive symptom severity: and Hamilton-Anxiety Rating Scale (HAM-A) (Shear, M. K. et al., Depress. Anxiety 13, 166-178 (2001)) a measure for anxiety symptom severity: SCID-5 (Structured Clinical Interview for DSM-5) Overview for a historical and environmental context of symptom presentation: MINI DSM-5 (Mini International Neuropsychiatric Interview from DSM-5) for a structured psychodiagnostics assessment: BAT-L (Boston Assessment of TBI-Lifetime) for a lifetime history of TBI and blast exposure: and Ohio State University TBI Identification Method (Short Form) for a lifetime history of TBI. MADRS testing provides an indication of depressive symptoms, CAPS-5 provides an indication of PTSD and SIGH-A provides an indication of anxiety. Collectively these overlap to provide indication of mood, concentration, sleep and tension.
To assess anxiety symptoms, the Hamilton Anxiety Rating Scale was used. This scale includes 14-items assessing both psychic and physical symptoms of anxiety. Items are rated on a scale from 0 (no symptoms) to 4 (severe symptoms). Total score ranges were: no or minimal anxiety (≤7), mild (8-14), moderate (15-23), and severe anxiety symptoms (≥24) (Matza et al., Int. J. Methods Psychiatr. Res. 19, 223-232 (2010))).

[1] = 1-mo. post, only participants meeting relevant MINI diagnostic criteria
[2] = 1-mo. post, only participants with mild TBI
[3] = 1-wk. post, only participants meeting relevant MINI diagnostic criteria
[4] = 1-wk. post, only participants with mild TBI

CCC1CC2CC3c4[nH]c5ccc(OC)cc5c4CCN(C2)C13 (stereo not shown) [ibogaine, Ibogaine]
HAM-A % Reduction vs Baseline [1]: 80% ± 23% | HAM-A Remission Rate [1]: 71% | HAM-A Response Rate [1]: 86% | HAM-A score (1-mo. post, only participants meeting relevant MINI diagnostic criteria at baseline (N 14), baseline 23.8 ± 7.6): 5.1 | HAM-A % Reduction vs Baseline [2]: 82% ± 21% | HAM-A Remission Rate [2]: 85% | HAM-A Response Rate [2]: 93% | HAM-A score (1-mo. post, only participants with mild TBI (N 28), baseline 20.7 ± 8.6): 3.7 | HAM-A score (1-wk post, only participants meeting relevant MINI diagnostic criteria at baseline (N 14), baseline 23.8 ± 7.6): 4.2 | HAM-A % Reduction vs Baseline [3]: 82% ± 14% | HAM-A Remission Rate [3]: 86% | HAM-A Response Rate [3]: 100% | HAM-A % Reduction vs Baseline [4]: 82% ± 19% | HAM-A Remission Rate [4]: 89% | HAM-A Response Rate [4]: 96% | HAM-A score (1-wk. post, only participants with mild TBI (N 28), baseline 20.7 ± 8.6): 3.3 | HAM-A, effect size D (baseline vs 1-mo. post, only participants meeting relevant MINI diagnostic criteria (N 14)): 2.33 | HAM-A, effect size D (baseline vs 1-mo. post, only participants with mild TBI (N 28)): 2.07 | HAM-A, effect size D (baseline vs 1-wk post, only participants with mild TBI (N 28)): 2.02 | HAM-A, effect size D (baseline vs 1-wk. post, only participants meeting relevant MINI diagnostic criteria (N 14)): 2.52 | HAM-A, effect size D (baseline vs one-month post, all participants): 2.13 | HAM-A, effect size D (baseline vs one-week post, all participants): 2.06 | HAM-A anxiety symptom severity score (four days after (immediate post) treatment, baseline about 21 (FIG. 5A)): about 7 | HAM-A effect size (four days after treatment relative to baseline (FIG. 5A)): 1.81 | subjects scoring below the mild anxiety range (HAM-A) (one month post treatment (FIG. 5B)): 90% | HAM-A effect size (one month post treatment relative to baseline (FIG. 5A)): 1.82 | HAM-A Remission Rate (one-month post, 29 participants, remission = score <8): 83% | HAM-A Response Rate (one-month post, 29 participants, response = reduction of at least 50%): 93% | HAM-A score (one-month post, all participants, baseline 20.8 ± 8.5, mean ± SD): 3.9 | HAM-A % Reduction vs Baseline (one-month post, all participants, mean ± SD): 81% ± 21% | HAM-A Remission Rate (one-week post, 29 participants, remission = score <8): 86% | HAM-A Response Rate (one-week post, 29 participants, response = reduction of at least 50%): 97% | HAM-A score (one-week post, all participants, baseline 20.8 ± 8.5, mean ± SD): 3.6 | HAM-A % Reduction vs Baseline (one-week post, all participants, mean ± SD): 81% ± 19%
